Patent US20200268832A1, “COMPOSITIONS FOR DELIVERY TO AND TREATMENT OF ATHEROSCLEROTIC PLAQUES” (Sanford Burnham Prebys Medical Discovery Institute, priority 2015, published 2020)
Entries after “also recorded” stand apart in the source; their conditions may differ. Bridges are numbered along the chain shown (N, C = ends). Where no end group is shown, it is not given here. FAM = 5(6)-carboxyfluorescein; Ahx = NCCCCCC(=O)O

Tests used:
p32 protein [1] = biological target: T1, p32 protein (Homo sapiens, UniProt Q07021); test: Fluorescence polarization assay: displacement of FAM-TT1 from p32 (HTS, dose response, unlabeled peptide competition); assay type: binding; settings: for dose-dependent inhibition of FAM-TT1 binding to p32: 8.25 μM to 100 μM; for inhibition at 25 µM: high-throughput screen hits, inhibition of TT1-p32 interaction, library compounds 25 μM (Table 1), b410 says 100 μM; for inhibition at 100 µM: highest concentration used, read-out: inhibition of FAM-TT1 binding to p32 in FP assay
T1 construct: 6xHis; host or cells: Rosetta-gami-2 cells (Novagen); an E. coli strain by own knowledge
T1 sequence (Q07021 74-282): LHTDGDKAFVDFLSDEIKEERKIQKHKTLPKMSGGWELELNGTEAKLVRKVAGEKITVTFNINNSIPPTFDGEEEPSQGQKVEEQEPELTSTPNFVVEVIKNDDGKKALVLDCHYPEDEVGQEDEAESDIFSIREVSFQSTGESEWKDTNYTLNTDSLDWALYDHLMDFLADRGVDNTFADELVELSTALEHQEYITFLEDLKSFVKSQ
Procedure: Fluorescence polarization (FP)-based assay was used for solution-based screening of compound libraries for p32 binding compounds. […] In FP assay, peptide conjugated with a fluorescent label (fluorescein-AM, FAM) is excited with polarized light. […] 6×-His-Tagged p^32 was expressed in Rosetta-gami-2 cells (Novagen). The protein was purified by IMAC using HIS-select resin (Sigma) with an imidizole gradient from 20-300 mM and eluted fractions were analyzed on analytical SDS-PAGE. […] Fluorescence polarization is given as milli-polarization (mP) value, which is obtained from equation (1):
mP=1000*(S−P)/(S+P), (Eq. 1)
(§1) The assay was initially set up in 20 μl well volume in 384 well plate (Corning Life Sciences), and measurements were carried out using PheraStar FS plate reader (BMG LABTECH, Ortenberg, Germany) in quadruplicate. Peptide and protein stock solutions were diluted to desired concentration with assay buffer (50 mM BIS-TRIS pH 7.4, 0.05% Tween20, 1 mM DTT). FAM-labeled peptides were protected from light during the experiment to avoid photobleaching. Optimal concentration of fluorescein (FAM) labeled-peptides for the assay was determined by measuring the limit of detection (LOD), signal-to-background ratio (S/B), and stability of mP value over series of peptide concentrations. In the binding assay, the concentration of FAM-peptide was kept constant, and the FP was measured over the range of target protein concentrations. The peptide dissociation constant (KD) was obtained by fitting the binding curve into Michaelis-Menten kinetics in GraphPad Prism-software (GraphPad Software, Inc., CA, USA).
FAM-TT-1 and p32 solutions are prepared just before experiment, and stored on ice during the screen; the peptide is shielded from light. • 1. […] Dispense 1.5 μL of assay buffer (50 mM BIS-TRIS pH 7.4, 0.05% Tween 20, 1 mM DTT) into columns 1-4 • 3. […] Dispense 37.5 nL of compounds (2 mM) into columns 5-44 • 5. Spin plate • 6. Incubate 20 min • 7. Dispense 1.5 μL FAM-TT-1 peptide (20 nM) into all columns • 8. Shake plate and spin plate • 9. Incubate 25 min • 10. Read plate on PheraStar FS
Chemical library of ˜50,000 compounds from ChemBridge (San Diego, Calif.) was screened in High-Throughput Screening Facility at Conrad Prebys Center for Chemical Genomics (Sanford-Burnham Medical Research Institute, La Jolla, Calif.). […] Peptide and protein were diluted immediately prior to screening, kept on ice during screening, and FAM-peptide was protected from light throughout the experiment. […]

b1b2 domain of NRP-1 = biological target: T2, b1b2 domain of NRP-1 (Homo sapiens, UniProt O14786); test: Fluorescence polarization displacement of FAM-RPARPAR from NRP-1; assay type: binding; settings: for effect on RPARPAR peptide binding to NRP-1: specificity assay, up to 100 μM
T2 sequence (O14786 273-586 limits assumed): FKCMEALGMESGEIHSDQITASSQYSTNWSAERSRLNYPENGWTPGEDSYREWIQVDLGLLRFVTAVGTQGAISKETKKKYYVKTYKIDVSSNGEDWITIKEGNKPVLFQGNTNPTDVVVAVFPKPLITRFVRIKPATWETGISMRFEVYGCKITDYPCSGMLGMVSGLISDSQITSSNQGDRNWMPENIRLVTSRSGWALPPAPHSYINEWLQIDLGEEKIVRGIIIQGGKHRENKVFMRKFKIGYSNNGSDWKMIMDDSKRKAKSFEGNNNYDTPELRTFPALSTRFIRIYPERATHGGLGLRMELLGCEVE
Procedure: Results of the high-throughput screen were confirmed in dose response tests. 8.25 μM to 100 μM dilutions of the compounds that displaced FAM-peptide from p32 were used in competition with FAM-peptide as described in previous section. Specificity of the hit compounds was verified by examining their binding to a different protein, b1b2 domain of NRP-1 (Vander Kooi et al., Proc. Natl. Acad. Sci. U.S.A., 10.1073/pnas.0700043104). Experimental method for NRP-1 b1b2 was developed and validated similarly to p32, using FAM-RPARPAR peptide as a known peptide ligand for NRP-1. The displacement of FAM-RPARPAR from NRP-1 protein by the hit compounds was studied in 384-well format, as described above.

p32 protein [2] = biological target: T1, p32 protein; test: TT1 phage binding inhibition assay (ELISA-type); settings: 100 μM compound
Procedure: The binding of individual phage to p32 was verified using ELISA-type of phage binding assay. 96-well plates (Corning Life Sciences, Tewksbury, Mass., USA) were coated with 100 μL of 5 μg/mL p32 in PBS at 4° C. overnight, washed 3 times with 200 μL of PBST (PBS+0.05% Tween-20), blocked with 200 μL of 0.5% bovine serum albumin (BSA) in PBST for 1 h at 37° C., and washed 3 times with PBST. Phages (1.11*10^8 pfu in 100 μL PBST) were added to p32-coated/BSA-blocked wells, the plate was incubated at 4° C. overnight, and washed 3 times with PBST. Subsequently, the plates were incubated with 100 μL in-house prepared polyclonal rabbit anti-T7 antibody diluted 1:1000 in PBST for 1 h at 4° C., and washed 3 times with washing buffer. Horseradish peroxidase (HRP)-labeled anti-rabbit IgG (Sigma-Aldrich) was diluted 1:1000 in PBS, and 100 μL was added to the wells, followed by 1 h incubation at 4° C. and washing 3 times. Next, 100 μL of OPD silver and gold substrate (Sigma-Aldrich) was added to the wells and incubated at room temperature until visible color was observed (<30 min). The reaction was stopped by adding 50 μL of 1M H2SO4, and the plate was read at 492 nm (Varioskan Flash, Thermo Scientific, Waltham, Mass., USA).
The ability to inhibit TT1-phage binding to p32 protein was used as a secondary assay to verify the hit compounds. The competition assay was based on the phage binding assay described above with minor modifications. ELISA plates were coated with 2.5 μg/mL p32, incubated with phages (1.11*10^8 pfu in 100 μL PBST) and 100 μM hit compounds at 4° C. overnight, and followed by antibody incubation and chromogenic reaction. Negative controls included DMSO at concentration it was used to dissolve the hit compounds.

p32 protein [3] = biological target: T1, p32 protein; test: NMR 1D 1H-aliph spectra of p32 with compounds; assay type: binding; settings: 5 μM p32; compounds 100 and 500 μM; TT1 70 μM
Procedure: FIGS. 3A and 3B are graphs showing NMR based evaluation of binding of compounds 4014008 and 7933989 to P32 protein. The ID ^1H-aliph spectra of 5 μM P32 in the absence (bottom) and presence of compounds #4014008 (A) and #7933989 (B) at 100 μM (second from bottom) and 500 μM (second from top) were collected. As a control, the spectrum of p32 in the presence of the known peptide binder, TT1 at 70 μM, was also collected (top).
All the NMR experiments were carried out on a Bruker Avance 700 spectrometer equipped with a TCI cryoprobe at T=293 K. For structure determinations, the peptide concentration was 100 μM in the NMR buffer in presence of 150 μM of ZnCl2. One-dimensional (1D) 1H spectra were acquired with a spectral width of 8417.51 Hz, relaxation delay 1.0 s, 8 k data points for acquisition and 16 k for transformation.

[4] = in vivo
Source text: Toxicity of peptide, compounds, and compositions can be assessed for toxicity. Useful factors for assessing toxicity include body weight, serum cholesterol and triglyceride, and weight of liver and spleen. Liver and kidney functions can be monitored by blood tests.

atherosclerotic plaques = test: Plaque homing of FAM-labeled peptides in ApoE null mice on high-fat diet; settings: 100 μg FAM-labeled peptide IV, one hour
Source text: One hour later, the mice can be perfused through the heart under anesthesia, and tissues were collected. Accumulation of FAM-labeled peptides can be visualized with UV excitation. Atherosclerotic aortas can be sectioned at the aortic root level, and examined by confocal microscopy. […] CD31 staining can be used to visualize the endothelium over the plaque.
One hour later, the mice were perfused through the heart under anesthesia, and tissues were collected. Accumulation of FAM-labeled peptides was visualized with UV excitation. Atherosclerotic aortas were sectioned at the aortic root level, and examined by confocal microscopy. […] CD31 staining was used to visualize the endothelium over the plaque.

[5] = biological target: T3, b1b2 domain of neuropilin-1 (NRP-1) (Homo sapiens, UniProt O14786); test: Fluorescence polarization binding of FAM-peptide to NRP-1
T3 sequence (O14786 273-586 limits assumed): T2 sequence (O14786 273-586 limits assumed)
Procedure: FIG. 8 is a graph showing specificity of TT1 binding. Specificity of TT1 was further evaluated by measuring the binding of FAM-TT1 to recombinant non-target protein, b1b2 domain of neuropilin-1 (NRP-1). The binding was studied by fluorescence polarization. […] Each data point presents average±S.D., n=4-6.
as §1, with “USA). […]” for “USA).”

Row | Compound | inhibition at 25 µM (p32 protein [1]) [%] | inhibition at 100 µM (p32 protein [1]) [%] | inhibition at 100 µM (p32 protein [2]) [%] | effect on RPARPAR peptide binding to NRP-1 (b1b2 domain of NRP-1) | other results
1 | Cc1c(O)ccc2c(C(F)(F)F)cc(=O)oc12 [Compound 6367577, 7-hydroxy-8-methyl-4-(trifluoromethyl)-2H-chromen-2-one] | 39.5 |  |  |  | dose-dependent inhibition of FAM-TT1 binding to p32 (p32 protein [1]): less effective than the other active compounds; FP level in the presence of compound (b1b2 domain of NRP-1; highest concentration): negative value
2 | CC1(C)CN=C(NCCNC2=NCC(C)(C)S2)S1 [Compound 7933989] | 40.5 | 80 | 75 | no effect | perturbations in 1D 1H-aliphatic spectra of p32 (p32 protein [3]): caused similar perturbations; also recorded: shift in the peak at around −0.3 ppm
3 | Cc1nc2nc3c(cn2n1)C(=O)CC(c1cccs1)C3 (stereo not drawn) [Compound 9132086, 2-methyl-6-(2-thienyl)-6,7-dihydro[1,2,4]triazolo [5,1-b]quinazolin-8(5H)-one] | 20.7 | 65 to 75 | 20 | no effect | 
4 | Nc1nccc(N2CCC(C3CCN(Cc4cccnc4)CC3)C2)n1 (stereo not drawn) [Compound 54778828, 4-{3-[1-(3-pyridinylmethyl)-4-piperidinyl]-1-pyrrolidinyl}-2-pyrimidinami] | 29.4 |  |  |  | dose-dependent inhibition of FAM-TT1 binding to p32 (p32 protein [1]): only marginally active
5 | Cc1ccc(-c2cnc(N)c(N3CCC(O)C3)n2)c(-n2cccn2)c1 (stereo not drawn) [Compound 88361068, 1-{3-amino-6-[4-methyl-2-(1H-pyrazol-1-yl)phenyl]pryazin-2-yl}pyrrolidin-3-] | 30.8 | 65 to 75 | 20 | no effect | 
6 | CN1CCc2onc(-c3ccc(F)c(F)c3)c2C1 [Compound 91984046] | 22.5 | 65 to 75 | 20 |  | 
7 | C[C@@H](O)[C@@H]1NC(=O)[C@H](CCCNC(=N)N)NC(=O)[C@H](CCCCN)NC(=O)[C@H](CC(N)=O)NC(=O)CNC(=O)[C@@H](N)CSSC[C@@H](C(=O)O)NC(=O)CNC(=O)[C@H](CCCNC(=N)N)NC1=O [LyP-1, CGNKRTRGC] |  |  |  |  | toxicity (body weight, serum cholesterol and triglyceride, weight of liver and spleen, liver and kidney functions) [4]: no differences between LyP-1 and control groups
8 | FAM-LyP-1: FAM-labeled LyP-1 peptide (CGNKRTRGC; disulfide 1-9 (inferred); not fully specified (N-terminus)) |  |  |  |  | homing to atherosclerotic plaques (atherosclerotic plaques): signal was seen inside plaques
9 | FAM-TT1: FAM-labeled TT1 peptide, 5(6)-carboxyfluorescein with 6-aminohexanoic acid spacer ({FAM-Ahx}-CKRGARSTC; disulfide 1-9 (inferred)) |  |  |  |  | binding to b1b2 domain of NRP-1 [5]: did not show binding; homing to atherosclerotic plaques (atherosclerotic plaques): signal was seen inside plaques
10 | RPARPAR [reference compound] |  |  |  |  | binding to b1b2 domain of NRP-1 [5]: showed strong affinity; inhibition (dislocation) of FAM-TT1 binding to p32 by unlabeled peptide (p32 protein [1]; unlabeled peptides titrated up to 100 μM): not and did not dislocate FAM-TT1
